# From EP0752872B1, “NADH OXIDASE AS A TARGET IN DIAGNOSIS AND THERAPY” (Morré, D. James, priority 1994, dated 1995)
# What was measured:
# [1] = test system: plasma membrane NADH oxidase; experiment: Spectrophotometric NADH oxidase assay, rat liver plasma membranes (normal cells); format: biochemical; details: for response of the NADH oxidase activity (in words): in the presence of Mg^2+
# Method: Purification of plasma membranes from rat liver. A 5000 x g pellet from the preparation of Golgi apparatus (Morré (1971) Meth. Enzymol. 22, 130-148) was the starting material. The fluffy layer which contains the Golgi apparatus fraction was mixed, withdrawn and excluded from the plasma membrane preparations. Cold 1 mM NaHCO3 (5 ml) was added to each tube and the friable yellow-brown upper part of the pellet was resuspended with a pen-brush, leaving the reddish tightly packed bottom part of the pellet undisturbed. The resuspended material was homogenized in aliquots of 5 ml each in a 30 ml stainless steel homogenizer (Duragrind) 20 times by hand. The homogenates were combined, diluted with cold 1 mM NaHCO3 (1:1 dilution), and centrifuged at 6000 x g in a HB rotor for 15 min. The supernatant was discarded and the pellet was used for the two-phase separation (Morré & Morré (1989) BioTechniques 7:946-958).
# The two-phase system contained 6.4% (w/w) Dextran T-500 (Pharmacia), 6.4% (w/w) polyethylene glycol) 3350 (Fisher), and 5 mM potassium phosphate buffer (pH 7.2) (Morré & Morré, 1989, supra). The homogenate (1 g) was added to the two-phase system and the weight of the system was brought to 8 g with distilled water. The tubes were inverted vigorously for 40 times in the cold (4°C). The phases were separated by centrifugation at 750 rpm (150 x g) in a Sorvall HB 4 rotor for 5 min. The upper phases were carefully withdrawn with a pasteur pipette, divided in half and transferred into 40 ml plastic centrifuge tubes and diluted with cold 1 mM NaHCO3. The purified plasma membranes were collected by centrifugation at 10,000 x g in a HB rotor for 30 min. Plasma membrane pellets were resuspended in 50 mM Tris-Mes buffer (pH 7.2) and stored at -70°C. Proteins were determined using the bicinchoninic acid (BCA) assay (Smith et al. (1985) Anal. Biochem. […]: 76-85) with bovine serum albumin as standard.
# (§1) Spectrophometric assay of NADH oxidase. NADH oxidase activity was determined as the disappearance of NADH measured at 340 nm in a reaction mixture containing 25 mM Tris-MES buffer (pH 7.2), 1 mM KCN to inhibit the low levels of contaminating mitochondrial oxidase activity, and 150 µM NADH at 37°C with constant stirring. Activity was measured using a Hitachi U3210 spectrophotometer with continuous recording over two intervals of 5 min each. A millimolar extinction coefficient of 6.22 was used to determine specific activity.
# [2] = test system: protein disulfide-thiol interchange of HeLa plasma membranes; experiment: Protein disulfide-thiol interchange (restoration of scrambled RNAse activity, yeast RNA hydrolysis method); format: biochemical, human; details: for protein disulfide-thiol interchange, I: column I; for protein disulfide-thiol interchange, II: column II; for protein disulfide-thiol interchange, III: column III
# Method: Estimation of protein disulfide isomerase- (PDI) like activity. Two methods were employed to determine PDI or PDI-like activity. […] For the assay, 100 µl was transferred to each of 4 tubes. Yeast RNA (100 µl, 0.33 mg/ml, pH 5.0) was added. After 0 min and 10 min, the reaction was stopped by the addition of 100 µl of 25% percholoric acid containing 0.75% uranyl acetate. The tubes were cooled in an ice bath for 5 min and clarified by centrifugation (2 min, microfuge). The 75 µl of the clear supernatant was diluted to 3.0 ml with water. The absorbance was measured at […] against an unincubated blank. […] To prepare the oxidized, denatured RNAse substrate (scrambled RNAse), native RNAse A (Sigma, Type 1-AS from bovine pancreas) (30 µg/ml) was incubated 1 h at 35°C in 50 mM Tris-acetate, pH 8.6, containing 9 M urea and 130 mM DTT. […] Protein concentration was estimated from spectrophotometric measurement at 280 nm using native RNAse A as standard. For preparation of scrambled RNAse, the reduced RNAse was diluted to 0.5 mg/ml with 0.1 M acetic acid. […] The scrambled product was recovered by acidification to pH 4 with glacial acetic acid and elution from Sephadex G-25 in 0.1 M acetic acid. Fractions containing protein were pooled, adjusted to pH 8 and stored at 4°C.
# [3] = test system: Protein disulfide-thiol interchange activity of HeLa plasma membrane; experiment: Protein disulfide-thiol interchange (RNAse activity with cCMP as substrate); format: biochemical, human; details: None 1.6
# Method: Estimation of protein disulfide isomerase- (PDI) like activity. Two methods were employed to determine PDI or PDI-like activity.
# (§2) In the first method, ribonuclease A activity was measured using a spectrophotometric assay based on cCMP as RNAse substrate. Scrambled RNAse (90.363 mg) was incubated together with 0.45 mM cCMP in 50 Mm Tris-MES buffer, pH 6.5, at 30°C in a final volume of 3 ml. […] A variation of this assay was to preincubate scrambled RNAse with transitional endoplasmic reticulum for 20 min in the presence or absence of 1 µM all-trans retinol (using ethanol as control) and in the presence or absence of 1 µM reduced or oxidized glutathione or a mixture of both. After this 20 min of "reactivation" of RNAse, cCMP was added to a final concentration of 0.45 mM to initiate the reaction. The increase of the absorbance at 296 nm was recorded over 25 min and the concentrations of cCMP were determined (E = 0.19 mM^-1cm^-1). Spectrophotometric measurements were with a Hitachi U3210 spectrophotometer with a thermostatic cell compartment maintained at 30°C with continuous stirring.
# Preparation of scrambled RNAse substrate. To prepare the oxidized, denatured RNAse substrate (scrambled RNAse), native RNAse A (Sigma, Type 1-AS from bovine pancreas) (30 µg/ml) was incubated 1 h at 35°C in 50 mM Tris-acetate, pH 8.6, containing 9 M urea and 130 mM DTT.
# Protein concentration was estimated from spectrophotometric measurement at 280 nm using native RNAse A as standard. For preparation of scrambled RNAse, the reduced RNAse was diluted to 0.5 mg/ml with 0.1 M acetic acid. Solid urea was then added to a final concentration of 10 M after which 0.1 M sarcosine hydrochloride was added and the pH adjusted to 8.5 with 1 M Tris. The mixture then was incubated in the dark for 2-3 days during which time the protein was randomly oxidized. The scrambled product was recovered by acidification to pH 4 with glacial acetic acid and elution from Sephadex G-25 in 0.1 M acetic acid. Fractions containing protein were pooled, adjusted to pH 8 and stored at 4°C.
# [4] = test system: circulating NADH oxidase in the serum; experiment: NADH oxidase activity of human serum; format: biochemical; details: normal human serum
# Method: as §1
# native RNAse = molecular target: T1, native RNAse (Bos taurus, UniProt P61823); experiment: Activity of native RNAse; format: biochemical, bovine; details: sulfonylurea 1 µM; for activity of native RNAse, pH 6.0: None 0.15; for activity of native RNAse, pH 6.8: None 0.21
# T1 construct: native RNAse A (Sigma, Type 1-AS from bovine pancreas); purchased Sigma Type 1-AS; host or cells: bovine pancreas
# T1 sequence (P61823 27-150): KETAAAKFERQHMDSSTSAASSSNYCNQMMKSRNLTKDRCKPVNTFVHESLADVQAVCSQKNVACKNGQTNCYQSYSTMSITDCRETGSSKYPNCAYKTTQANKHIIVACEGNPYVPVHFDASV
# Method: as §2, with “substrate.” for “substrate. Scrambled RNAse (90.363 mg) was incubated together with 0.45 mM cCMP in 50 Mm Tris-MES buffer, pH 6.5, at 30°C in a final volume of 3 ml.”, “[…] […]” for “A variation of this assay was to preincubate scrambled RNAse with transitional endoplasmic”
# [5] = test system: NADH oxidase activity of culture medium with HeLa cells; experiment: NADH oxidase activity of culture medium with HeLa cells; format: biochemical, human
# Method: As is characteristic of many ectoproteins of the mammalian cell surface, an NADH oxidase activity is present in the serum and in HeLa cell culture filtrate. The NADH oxidase activity of culture medium with HeLa cells is proportional to time of incubation and to the amount of medium added. […] The activity is inhibited by 85°C for 20 min, trypsin, N-ethyl maleimide and PCMB, and guanosine nucleotides. These activities have properties similar to those of the plasma membrane-bound form. The circulating form appears to have a lower molecular weight (ca. 32 kD) than the membrane-bound form. The circulating NADH oxidase in the serum of cancer patients is inhibited by adriamycin whereas the circulating NADH oxidase in the serum of healthy individuals is not. Further details from this observation are found in the examples.
# HeLa cells = experiment: Growth of HeLa cells in culture; format: cell-based, human
# Method: Growth of cells. HeLa cells (ATCC CCL2), were grown in 150 cm^2 flasks in Minimal Essential Medium (Gibco), pH 7.4. at 37°C with 10% bovine calf serum (heat-inactivated), plus 50 mg/l gentamycin sulfate (Sigma). Cells were trypsinized with Sigma IX trypsin for 1 to 2 min, harvested by scraping and taken up in TD-tris buffer (140 mM NaCl, 5 mM KCl, 0.7 mM Na2HPO4 and 25 mM Tris, pH 7.4) to a final cell concentration of 0.1 g wet weight (gww) per ml.
# The number of cells initially plated was subtracted. The results were averages from duplicate experiments.
# [6] = substance alone, thiol addition 1 µM, none 0.11
# [7] = substance alone, thiol addition 1 µM, none 0.047
# [8] = biphasic response, read-out: Km at low NADH concentrations
compound,measurement,setting,value
CC1=CC(=O)[C@@H](O)[C@]2(C)[C@H]3[C@@]4(O)OC[C@]35[C@H]([C@@H](C)[C@H]4O)[C@@H](O)C(=O)O[C@@H]5C[C@@H]12 [(-)-glaucarubolone],IC50,"[1]; liver plasma membranes, Figure 3, read-out: final concentration at which the activity was 50% inhibited",~1 nM
Nc1nc2c(ncn2[C@@H]2O[C@H](COP(=O)(O)OP(=O)(O)O)[C@@H](O)[C@H]2O)c(=O)[nH]1 [GDP],response of the NADH oxidase activity (in words),[1],inhibited
"N[C@@H](CCC(=O)N[C@@H](CS)C(=O)NCC(=O)O)C(=O)O [GSH, reduced glutathione]","protein disulfide-thiol interchange, I",[2]; [6],0.06 0.D./10 min
same,"protein disulfide-thiol interchange, II",[2]; [7],0.06 0.D./10 min
same,"protein disulfide-thiol interchange, III","[2]; substance alone, thiol addition 1 µM, none 0.021",0.041 0.D./10 min
same,Protein disulfide-thiol interchange activity,"[3]; thiol treatment, concentration not given",2.1 nmoles/min/mg protein
Nc1nc2c(ncn2[C@@H]2O[C@H](COP(=O)(O)OP(=O)(O)OP(O)(O)=S)[C@@H](O)[C@H]2O)c(=O)[nH]1 [GTP [γ-S]],response of the NADH oxidase activity (in words),[1],inhibited
Nc1nc2c(ncn2[C@@H]2O[C@H](COP(=O)(O)OP(=O)(O)OP(=O)(O)O)[C@@H](O)[C@H]2O)c(=O)[nH]1 [GTP],inhibition of NADH oxidase activity (in words),[4],inhibited
"Cc1ccc(S(=O)(=O)NC(=O)Nc2ccc(Cl)cc2)cc1 [LY181984, N-(4-methylphenylsulfonyl)-N'-(4-chlorophenyl) urea]","protein disulfide-thiol interchange, I",[2]; [6],0.076 0.D./10 min
same,"protein disulfide-thiol interchange, I",[2]; sulfonylurea with GSH 1 µM,0.056 0.D./10 min
same,"protein disulfide-thiol interchange, I",[2]; sulfonylurea with GSSG 1 µM,0.044 0.D./10 min
same,"protein disulfide-thiol interchange, II",[2]; [7],0.049 0.D./10 min
same,"protein disulfide-thiol interchange, II",[2]; sulfonylurea with GSH 1 µM,0.03 0.D./10 min
same,"protein disulfide-thiol interchange, II",[2]; sulfonylurea with GSSG 1 µM,0.04 0.D./10 min
same,"protein disulfide-thiol interchange, III",[2]; sulfonylurea with GSH 1 µM,0.018 0.D./10 min
same,"protein disulfide-thiol interchange, III",[2]; sulfonylurea with GSSG 1 µM,0.016 0.D./10 min
same,inhibition of protein disulfide isomerase-like activity (in words),[2]; plasma membrane vesicles isolated from HeLa cells,inhibited the activity
same,Protein disulfide-thiol interchange activity,[3]; treatment at 1 µM,1.0 nmoles/min/mg protein
same,"activity of native RNAse, pH 6.0",native RNAse,0.14 µmol/mg/min
same,"activity of native RNAse, pH 6.8",native RNAse,0.21 µmol/mg/min
"Cc1ccc(S(=O)(=O)NC(=O)Nc2ccccc2)cc1 [LY181985, N-(4-methylphenylsulfonyl)-N'-(phenyl)urea]","activity of native RNAse, pH 6.0",native RNAse,0.15 µmol/mg/min
same,"activity of native RNAse, pH 6.8",native RNAse,0.21 µmol/mg/min
CCN1C(=O)C=CC1=O [N-ethyl maleimide],inhibition of NADH oxidase activity (in words),[4],inhibited
same,inhibition of NADH oxidase activity (in words),[5],inhibited
"NC(=O)C1=CN([C@@H]2O[C@H](COP(=O)(O)OP(=O)(O)OC[C@H]3O[C@@H](n4cnc5c(N)ncnc54)[C@H](O)[C@@H]3O)[C@@H](O)[C@H]2O)C=CC1 [NADH, reduced pyridine nucleotide]",Km,[4]; [8],25 µM
same,Km,[5]; [8],15 µM
"O=C(O)c1cc[c]([Hg][Cl])cc1 [PCMB, p-chloromercuribenzoate]",inhibition of NADH oxidase activity (in words),[4],inhibited
same,inhibition of NADH oxidase activity (in words),[5],inhibited
"Nc1ccc(Cl)cc1 [free chloroaniline, chloroaniline]",inhibition of growth of HeLa cells (in words),HeLa cells,inactive
aluminum fluoride,response of the hormone- and growth-stimulated NADH oxidase (in words),[1],weakly inhibitory
mastoparan,response of the hormone- and growth-stimulated NADH oxidase (in words),[1],activated
